Experimental data from the CheMixHub viscosity set.
Values joined by “and” are separate entries in the source; they are usually repeats but may differ in a detail not shown here. Identical values can stand only once.

Assay: xn = mol fraction of the nth substance listed

CC(C)CCCC(C)CCCC(C)CCCCC(C)CCCC(C)CCCC(C)C (stereo not given) + CCCCCC
viscosity [mPa·s]
Details | 293.15 K | 298.15 K | 313.15 K
100 kPa, x1 = 0.235 | 1.91 | – | 1.36
100 kPa, x1 = 0.511 | 7.76 | – | 4.15
100 kPa, x1 = 0.743 | 17.5 | – | 8.25
101 kPa, x1 = 0.129 | 0.972 | – | 0.739
101 kPa, x1 = 0.268 | 2.45 | – | 1.63
101 kPa, x1 = 0.469 | 6.3 | – | 3.62
101 kPa, x1 = 0.5661 | – | 10.15 | –
101 kPa, x1 = 0.762 | 18.3 | – | 8.84
101.33 kPa, x1 = 0.129 | 0.972 | – | 0.739
101.33 kPa, x1 = 0.268 | 2.45 | – | 1.63
101.33 kPa, x1 = 0.469 | 6.3 | – | 3.62
101.33 kPa, x1 = 0.762 | 18.3 | – | 8.84

CCCCCCCCCCCCCCCCCC(=O)OC + CCCCCC
viscosity [mPa·s], 101 kPa
Details | x1 = 0.05 | x1 = 0.1 | x1 = 0.15 | x1 = 0.2 | x1 = 0.25 | x1 = 0.3
298 K | 0.48 | 0.67 | 0.85 | 1.08 | 1.22 | 1.41
303 K | 0.46 | 0.63 | 0.79 | 0.99 | 1.13 | 1.3
308 K | 0.44 | 0.59 | 0.74 | 0.92 | 1.05 | 1.21
313 K | 0.42 | 0.55 | 0.69 | 0.85 | 0.98 | 1.12

c1ccc(Nc2ccccc2)cc1 + CCCCCC
viscosity
Details | 298.15 K | 303.15 K | 308.15 K | 313.15 K | 318.15 K
101 kPa, x1 = 0.0477 | 0.3866 mPa·s | 0.3675 mPa·s | 0.3515 mPa·s | 0.3325 mPa·s | 0.3164 mPa·s
101 kPa, x1 = 0.1451 | – | 0.5085 mPa·s | 0.4768 mPa·s | 0.4472 mPa·s | 0.4182 mPa·s
101.33 kPa, x1 = 0.03537 | – | 0.352 mPa·s | – | – | 0.3079 mPa·s
101.33 kPa, x1 = 0.04767 | – | 0.3675 mPa·s | – | – | 0.3164 mPa·s
101.33 kPa, x1 = 0.0477 | 0.3866 mPa·s | 0.3675 mPa·s | 0.3515 mPa·s | 0.3325 mPa·s | 0.3164 mPa·s
101.33 kPa, x1 = 0.05985 | – | 0.3824 mPa·s | – | – | 0.3288 mPa·s
101.33 kPa, x1 = 0.1451 | – | 0.5085 mPa·s and 0.5085 mPa·s | 0.4768 mPa·s | 0.4472 mPa·s | 0.4182 mPa·s and 0.4182 mPa·s
101.33 kPa, x1 = 0.3067 | – | 1.53 mPa·s | – | – | 0.7796 mPa·s

c1ccc(Nc2ccccc2)cc1 + CCCCCC(=O)O
323.15 K, 101.33 kPa
Details | viscosity [mPa·s]
x1 = 0.2111 | 2.271
x1 = 0.3983 | 2.789
x1 = 0.5972 | 3.497
x1 = 0.7957 | 4.496

CCCCCCCCCCCCO + CCCCCCC
viscosity [mPa·s], 101.33 kPa
Details | 298.15 K | 308.15 K
x1 = 0.0343 | 0.4411 | 0.3932
x1 = 0.0687 | 0.514 | 0.4523
x1 = 0.1389 | 0.7038 | 0.6054
x1 = 0.2173 | 0.9825 | 0.8279
x1 = 0.2965 | 1.372 | 1.126
x1 = 0.392 | 2.04 | 1.632
x1 = 0.4898 | 2.746 | 2.224
x1 = 0.5941 | 4.056 | 3.199
x1 = 0.7213 | 5.958 | 4.858
x1 = 0.7853 | 7.414 | 5.854
x1 = 0.8475 | 9.506 | 7.073
x1 = 0.9227 | 11.73 | 8.856

CC(C)CCCC(C)CCCC(C)CCCCC(C)CCCC(C)CCCC(C)C (stereo not given) + CCCCCCCC
viscosity [mPa·s], 100 kPa
Details | x1 = 0.238 | x1 = 0.492 | x1 = 0.709
293.15 K | 2.43 | 7.43 | 15.6
313.15 K | 1.6 | 4.27 | 7.68

CCCOC(=O)CCC + CCCCCCCCCC
298.15 K, 101.33 kPa
Details | viscosity [mPa·s]
x2 = 0.107 | 0.775
x2 = 0.1388 | 0.773
x2 = 0.1735 | 0.771
x2 = 0.2644 | 0.768
x2 = 0.3659 | 0.768
x2 = 0.4232 | 0.769
x2 = 0.5092 | 0.773
x2 = 0.6715 | 0.79
x2 = 0.7654 | 0.804
x2 = 0.8807 | 0.828
x2 = 0.9329 | 0.841

CCc1cccc(CC)c1 + CCCCCCCCCCCC
viscosity [mPa·s], 102 kPa
Details | x1 = 0.0991 | x1 = 0.2011 | x1 = 0.2996 | x1 = 0.4004 | x1 = 0.5006 | x1 = 0.5983 | x1 = 0.6998 | x1 = 0.7998 | x1 = 0.9001
293.15 K | 1.4 | 1.31 | 1.23 | 1.16 | 1.09 | 1.03 | 0.971 | 0.927 | 0.885
303.15 K | 1.18 | 1.11 | 1.05 | 1 | 0.94 | 0.9 | 0.852 | 0.811 | 0.778
313.15 K | 1.01 | 0.962 | 0.916 | 0.871 | 0.831 | 0.792 | 0.751 | 0.717 | 0.69
323.15 K | 0.886 | 0.843 | 0.806 | 0.768 | 0.735 | 0.703 | 0.67 | 0.642 | 0.618

CCCOC(=O)CCC + CCCCCCCCCCCCCC
298.15 K, 101.33 kPa
Details | viscosity [mPa·s]
x2 = 0.0852 | 0.852
x2 = 0.1135 | 0.877
x2 = 0.154 | 0.911
x2 = 0.2133 | 0.967
x2 = 0.2994 | 1.054
x2 = 0.3667 | 1.127
x2 = 0.4774 | 1.25
x2 = 0.6061 | 1.413
x2 = 0.7085 | 1.558
x2 = 0.8446 | 1.786
x2 = 0.9178 | 1.909
